From ChEMBL document CHEMBL1142044, “Estrogen receptor ligands. Part 10: Chromanes: old scaffolds for new SERAMs” (Bioorg Med Chem Lett, 2005) come the findings set out here.

Holding throughout (format): ADME, organism-based
Data set [1] in a line: Bioavailability in rat (female) (dose 1 mg/kg i.v. and 2 mg/kg p.o.). The settings on record: in vivo, po.
Data set [2] is described as follows: Plasma clearance in female rat was determined with intravenous dosing at 1 mpk and oral dosing at 2 mpk. The settings on record: 1 mg/kg.
Data set [3] can be described thus: Half life in female rat was determined with intravenous dosing at 1 mpk and oral dosing at 2 mpk. The conditions noted are these: in vivo.

On to `C[C@@H]1c2cc(O)ccc2O[C@@H](c2ccc(OCCN3CCCCC3)cc2)[C@H]1c1ccc(O)cc1`, for which, in data set [1], the bioavailability (in general, dose-corrected exposure relative to a reference, in per cent) was found to be 45%. Also, the clearance in data set [2] was found to be 7.7 mL/min/kg. In data set [3], the half-life – broadly, how long it takes for the measured level to halve – is 8.1 h.
For `C[C@@H]1c2c(ccc(O)c2F)O[C@@H](c2ccc(OCCN3CCCCC3)cc2)[C@H]1c1ccc(O)cc1`, in that order: 54%, 16.9 mL/min/kg and 11.2 h.
Regarding `C[C@@H]1c2c(ccc(O)c2F)O[C@@H](c2ccc(OC[C@H](C)N3CCCC3)cc2)[C@H]1c1ccc(O)cc1`, in data set [1], the bioavailability came out at 31%. In data set [2], this molecule registered a clearance of 42.6 mL/min/kg. Also, the half-life in data set [3] is 4.4 h.
For `C[C@H]1CCN([C@@H](C)COc2ccc([C@@H]3Oc4ccc(O)c(F)c4[C@@H](C)[C@@H]3c3ccc(O)cc3)cc2)C1`, in that order: 44%, 9 mL/min/kg and 6.1 h.
For `C[C@@H]1CCN(CCOc2ccc([C@@H]3Oc4ccc(O)c(F)c4[C@@H](C)[C@@H]3c3ccc(O)cc3)cc2)C1` the same measures were 43%, 17.8 mL/min/kg and 8 h.
For `C[C@@H]1c2ccc(O)cc2O[C@@H](c2ccc(OCCN3CCCCC3)cc2)[C@H]1c1ccc(O)cc1`, the bioavailability in data set [1] was determined as 2%. Also, in data set [2], the clearance was determined as 9.5 mL/min/kg. This molecule also showed a half-life in data set [3] of 5.9 h.
